Test results: ChEMBL document CHEMBL5058649, “Data for DCP probe BAY 1816032” (2022)
Activity calls are given as the source filed them. No cut-off for these calls is given here.

Experiments:
[1] = molecular target: MAP kinase-activated protein kinase 2 (Homo sapiens) (UniProt P49137); assay: MAPKAPK2 DiscoveRx kinase panel; details: Compound concentration 1.0 uM
[2] = molecular target: 5-hydroxytryptamine receptor 1A (Homo sapiens) (UniProt P08908); assay: Serotonin (5-Hydroxytryptamine) 5-HT1A Eurofins-Panlabs radioligand binding assay; details: Compound concentration 10.0 uM
[3] = molecular target: D(4) dopamine receptor (Homo sapiens) (UniProt P21917); details: Compound concentration 10.0 uM
[4] = molecular target: Serine/threonine-protein kinase STK11 (Homo sapiens) (UniProt Q15831); assay: LKB1 DiscoveRx kinase panel; details: Compound concentration 1.0 uM
[5] = molecular target: Phosphatidylinositol 4-kinase beta (Homo sapiens) (UniProt Q9UBF8); assay: PIK4CB DiscoveRx kinase panel; details: Compound concentration 1.0 uM
[6] = molecular target: Muscle, skeletal receptor tyrosine-protein kinase (Homo sapiens) (UniProt O15146); assay: MUSK DiscoveRx kinase panel; details: Compound concentration 1.0 uM
[7] = molecular target: Serine/threonine-protein kinase MRCK beta (Homo sapiens) (UniProt Q9Y5S2); assay: MRCKB DiscoveRx kinase panel; details: Compound concentration 1.0 uM
[8] = molecular target: T1, Mitotic checkpoint serine/threonine-protein kinase BUB1 (Homo sapiens, UniProt O43683); assay: TR-FRET
T1 sequence (O43683 whole entry): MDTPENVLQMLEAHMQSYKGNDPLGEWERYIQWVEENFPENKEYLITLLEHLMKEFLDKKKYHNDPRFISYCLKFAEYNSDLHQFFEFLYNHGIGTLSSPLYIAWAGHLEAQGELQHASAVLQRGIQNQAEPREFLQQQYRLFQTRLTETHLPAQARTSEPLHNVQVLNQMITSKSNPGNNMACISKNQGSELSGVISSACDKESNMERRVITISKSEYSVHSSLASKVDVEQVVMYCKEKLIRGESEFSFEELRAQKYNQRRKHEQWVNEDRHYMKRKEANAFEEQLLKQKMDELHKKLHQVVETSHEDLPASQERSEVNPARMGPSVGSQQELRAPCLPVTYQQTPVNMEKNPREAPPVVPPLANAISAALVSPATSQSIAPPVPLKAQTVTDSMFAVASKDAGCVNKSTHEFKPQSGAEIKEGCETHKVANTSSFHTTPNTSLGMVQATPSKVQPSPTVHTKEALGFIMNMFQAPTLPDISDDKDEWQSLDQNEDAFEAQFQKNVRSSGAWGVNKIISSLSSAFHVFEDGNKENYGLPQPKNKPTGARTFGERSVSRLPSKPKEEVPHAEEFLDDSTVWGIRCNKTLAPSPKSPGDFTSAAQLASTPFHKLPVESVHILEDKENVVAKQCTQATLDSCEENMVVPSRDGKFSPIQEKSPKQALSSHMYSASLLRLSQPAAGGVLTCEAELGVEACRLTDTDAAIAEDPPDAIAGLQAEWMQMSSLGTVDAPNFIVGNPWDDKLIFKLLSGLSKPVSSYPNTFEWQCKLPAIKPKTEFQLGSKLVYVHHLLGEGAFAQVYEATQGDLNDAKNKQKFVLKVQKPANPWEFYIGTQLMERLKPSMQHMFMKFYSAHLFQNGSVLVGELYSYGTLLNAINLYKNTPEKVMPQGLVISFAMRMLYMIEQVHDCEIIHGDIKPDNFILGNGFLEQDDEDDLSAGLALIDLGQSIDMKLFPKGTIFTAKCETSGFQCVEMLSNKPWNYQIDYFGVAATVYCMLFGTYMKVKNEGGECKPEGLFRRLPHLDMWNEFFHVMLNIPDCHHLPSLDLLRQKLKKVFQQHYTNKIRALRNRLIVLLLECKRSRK

[9] = molecular target: T2, Alpha-2A adrenergic receptor (Homo sapiens) (UniProt P08913); details: Compound concentration 10.0 uM
T2 sequence (whole entry): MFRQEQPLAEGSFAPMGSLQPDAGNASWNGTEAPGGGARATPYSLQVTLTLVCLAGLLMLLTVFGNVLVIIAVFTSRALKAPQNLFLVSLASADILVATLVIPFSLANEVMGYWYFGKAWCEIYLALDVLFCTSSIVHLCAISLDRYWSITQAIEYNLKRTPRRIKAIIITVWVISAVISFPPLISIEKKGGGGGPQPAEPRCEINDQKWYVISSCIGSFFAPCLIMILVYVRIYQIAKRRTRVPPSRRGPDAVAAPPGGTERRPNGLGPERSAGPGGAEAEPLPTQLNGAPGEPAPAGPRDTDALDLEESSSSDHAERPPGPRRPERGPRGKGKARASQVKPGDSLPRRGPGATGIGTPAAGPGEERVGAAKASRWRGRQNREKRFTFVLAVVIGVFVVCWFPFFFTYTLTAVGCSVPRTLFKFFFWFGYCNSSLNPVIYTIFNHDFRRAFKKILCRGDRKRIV

[10] = molecular target: Tyrosine-protein kinase Lyn (Homo sapiens) (UniProt P07948); assay: LYN DiscoveRx kinase panel; details: Compound concentration 1.0 uM
[11] = molecular target: Death-associated protein kinase 3 (Homo sapiens) (UniProt O43293); assay: DAPK3 DiscoveRx kinase panel; details: Compound concentration 1.0 uM
Sequence of Death-associated protein kinase 3 (Homo sapiens) (O43293 whole entry, looked up): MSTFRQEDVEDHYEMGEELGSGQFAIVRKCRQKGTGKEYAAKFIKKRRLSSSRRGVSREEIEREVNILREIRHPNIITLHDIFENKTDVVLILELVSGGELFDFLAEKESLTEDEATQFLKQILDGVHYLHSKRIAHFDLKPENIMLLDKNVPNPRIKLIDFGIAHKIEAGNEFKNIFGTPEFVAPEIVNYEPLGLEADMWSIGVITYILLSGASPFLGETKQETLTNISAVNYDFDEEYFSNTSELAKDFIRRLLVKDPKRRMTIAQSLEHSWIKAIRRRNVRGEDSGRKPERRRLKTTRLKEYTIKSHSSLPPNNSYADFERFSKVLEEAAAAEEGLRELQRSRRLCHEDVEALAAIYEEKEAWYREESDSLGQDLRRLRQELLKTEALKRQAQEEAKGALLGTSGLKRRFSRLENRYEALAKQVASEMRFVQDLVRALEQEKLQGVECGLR

[12] = molecular target: Calcium/calmodulin-dependent protein kinase type II subunit alpha (Homo sapiens) (UniProt Q9UQM7); assay: CAMK2A DiscoveRx kinase panel; details: Compound concentration 1.0 uM
[13] = molecular target: Insulin receptor (Homo sapiens) (UniProt P06213); assay: INSR DiscoveRx kinase panel; details: Compound concentration 1.0 uM
[14] = molecular target: Phosphorylase b kinase gamma catalytic chain, skeletal muscle/heart isoform (Homo sapiens) (UniProt Q16816); assay: PHKG1 DiscoveRx kinase panel; details: Compound concentration 1.0 uM
[15] = molecular target: 5-hydroxytryptamine receptor 2B (Homo sapiens) (UniProt P41595); details: Compound concentration 10.0 uM
[16] = molecular target: Interferon-induced, double-stranded RNA-activated protein kinase (Homo sapiens) (UniProt P19525); assay: PRKR DiscoveRx kinase panel; details: Compound concentration 1.0 uM
[17] = molecular target: Fibroblast growth factor receptor 3 (Homo sapiens) (UniProt P22607); assay: FGFR3 DiscoveRx kinase panel; details: Compound concentration 1.0 uM
[18] = molecular target: Serine/threonine-protein kinase N1 (Homo sapiens) (UniProt Q16512); assay: PKN1 DiscoveRx kinase panel; details: Compound concentration 1.0 uM
[19] = molecular target: Serine/threonine-protein kinase PAK 2 (Homo sapiens) (UniProt Q13177); assay: PAK2 DiscoveRx kinase panel; details: Compound concentration 1.0 uM
[20] = molecular target: MAP/microtubule affinity-regulating kinase 4 (Homo sapiens) (UniProt Q96L34); assay: MARK4 DiscoveRx kinase panel; details: Compound concentration 1.0 uM
Sequence of MAP/microtubule affinity-regulating kinase 4 (Homo sapiens) (Q96L34 whole entry): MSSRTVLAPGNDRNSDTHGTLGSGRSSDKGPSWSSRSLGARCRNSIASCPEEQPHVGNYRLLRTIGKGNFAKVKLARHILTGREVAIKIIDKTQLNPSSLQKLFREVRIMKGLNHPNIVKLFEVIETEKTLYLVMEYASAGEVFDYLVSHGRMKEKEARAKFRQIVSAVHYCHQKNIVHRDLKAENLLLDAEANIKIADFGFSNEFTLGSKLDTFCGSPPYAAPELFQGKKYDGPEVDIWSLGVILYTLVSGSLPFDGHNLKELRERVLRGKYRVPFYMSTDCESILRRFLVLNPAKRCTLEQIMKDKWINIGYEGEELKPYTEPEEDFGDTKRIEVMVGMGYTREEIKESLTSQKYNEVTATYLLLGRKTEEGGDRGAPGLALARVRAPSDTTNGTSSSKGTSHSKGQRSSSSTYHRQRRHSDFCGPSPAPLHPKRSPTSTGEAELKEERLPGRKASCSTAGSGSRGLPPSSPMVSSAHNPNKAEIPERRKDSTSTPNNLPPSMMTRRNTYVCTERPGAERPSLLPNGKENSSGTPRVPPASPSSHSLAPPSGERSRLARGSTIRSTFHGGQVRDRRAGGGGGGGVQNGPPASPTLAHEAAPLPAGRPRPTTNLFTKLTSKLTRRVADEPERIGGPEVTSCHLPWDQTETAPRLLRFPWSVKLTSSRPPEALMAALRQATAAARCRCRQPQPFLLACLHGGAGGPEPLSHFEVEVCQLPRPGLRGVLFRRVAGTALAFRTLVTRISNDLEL

[21] = molecular target: Histamine H4 receptor (Homo sapiens) (UniProt Q9H3N8); details: Compound concentration 10.0 uM
[22] = molecular target: Serine/threonine-protein kinase 32B (Homo sapiens) (UniProt Q9NY57); assay: YANK2 DiscoveRx kinase panel; details: Compound concentration 1.0 uM
Sequence of Serine/threonine-protein kinase 32B (Homo sapiens) (Q9NY57 whole entry): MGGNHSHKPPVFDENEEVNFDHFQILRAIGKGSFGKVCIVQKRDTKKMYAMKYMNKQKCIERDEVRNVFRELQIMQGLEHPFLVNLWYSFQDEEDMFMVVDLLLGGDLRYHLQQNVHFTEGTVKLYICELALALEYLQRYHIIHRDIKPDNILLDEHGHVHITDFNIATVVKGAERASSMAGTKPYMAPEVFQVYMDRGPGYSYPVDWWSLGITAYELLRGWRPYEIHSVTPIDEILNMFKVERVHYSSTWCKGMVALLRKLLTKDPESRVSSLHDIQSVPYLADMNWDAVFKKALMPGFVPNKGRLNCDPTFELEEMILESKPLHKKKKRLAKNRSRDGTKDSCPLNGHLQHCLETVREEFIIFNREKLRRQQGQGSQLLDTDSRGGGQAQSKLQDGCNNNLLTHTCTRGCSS

[23] = molecular target: Cyclin-dependent kinase-like 5 (Homo sapiens) (UniProt O76039); assay: CDKL5 DiscoveRx kinase panel; details: Compound concentration 1.0 uM
[24] = molecular target: Sigma non-opioid intracellular receptor 1 (Homo sapiens, UniProt Q99720); details: Compound concentration 10.0 uM
Sequence of Sigma non-opioid intracellular receptor 1 (Q99720 whole entry): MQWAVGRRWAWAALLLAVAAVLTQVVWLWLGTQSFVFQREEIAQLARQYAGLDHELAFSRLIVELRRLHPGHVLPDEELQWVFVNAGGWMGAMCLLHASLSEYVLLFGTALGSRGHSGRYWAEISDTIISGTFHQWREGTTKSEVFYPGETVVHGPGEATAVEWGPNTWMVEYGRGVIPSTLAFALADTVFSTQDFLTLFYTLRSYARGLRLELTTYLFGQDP

[25] = molecular target: Tyrosine-protein kinase Fgr (Homo sapiens) (UniProt P09769); assay: FGR DiscoveRx kinase panel; details: Compound concentration 1.0 uM
[26] = molecular target: Serine/threonine-protein kinase/endoribonuclease IRE1 (Homo sapiens) (UniProt O75460); assay: ERN1 DiscoveRx kinase panel; details: Compound concentration 1.0 uM
[27] = molecular target: Aurora kinase A (Homo sapiens) (UniProt O14965); assay: AURKA DiscoveRx kinase panel; details: Compound concentration 1.0 uM
[28] = molecular target: Homeodomain-interacting protein kinase 4 (Homo sapiens) (UniProt Q8NE63); assay: HIPK4 DiscoveRx kinase panel; details: Compound concentration 1.0 uM
[29] = molecular target: NUAK family SNF1-like kinase 1 (Homo sapiens) (UniProt O60285); assay: ARK5 DiscoveRx kinase panel; details: Compound concentration 1.0 uM
[30] = molecular target: Homeodomain-interacting protein kinase 2 (Homo sapiens) (UniProt Q9H2X6); assay: HIPK2 DiscoveRx kinase panel; details: Compound concentration 1.0 uM
[31] = molecular target: Ephrin type-A receptor 8 (Homo sapiens) (UniProt P29322); assay: EPHA8 DiscoveRx kinase panel; details: Compound concentration 1.0 uM
[32] = molecular target: Beta-1 adrenergic receptor (Homo sapiens) (UniProt P08588); details: Compound concentration 10.0 uM
[33] = molecular target: Cyclin-dependent kinase 13 (Homo sapiens) (UniProt Q14004); assay: CDC2L5 DiscoveRx kinase panel; details: Compound concentration 1.0 uM
[34] = molecular target: T1, Mitotic checkpoint serine/threonine-protein kinase BUB1; assay: BUB1 biochemical assay (low ATP)
[35] = molecular target: Glycogen synthase kinase-3 alpha (Homo sapiens, UniProt P49840); assay: GSK3A DiscoveRx kinase panel
[36] = molecular target: Cyclin-dependent kinase 11A (Homo sapiens) (UniProt Q9UQ88); assay: CDC2L2 DiscoveRx kinase panel; details: Compound concentration 1.0 uM
[37] = molecular target: Sigma intracellular receptor 2 (Homo sapiens, UniProt Q5BJF2); details: Compound concentration 10.0 uM
[38] = molecular target: Serine/threonine-protein kinase 38 (Homo sapiens) (UniProt Q15208); assay: NDR1 DiscoveRx kinase panel; details: Compound concentration 1.0 uM
[39] = molecular target: 1-phosphatidylinositol 3-phosphate 5-kinase (Homo sapiens) (UniProt Q9Y2I7); assay: PIKFYVE DiscoveRx kinase panel; details: Compound concentration 1.0 uM
Sequence of 1-phosphatidylinositol 3-phosphate 5-kinase (Homo sapiens) (Q9Y2I7 whole entry): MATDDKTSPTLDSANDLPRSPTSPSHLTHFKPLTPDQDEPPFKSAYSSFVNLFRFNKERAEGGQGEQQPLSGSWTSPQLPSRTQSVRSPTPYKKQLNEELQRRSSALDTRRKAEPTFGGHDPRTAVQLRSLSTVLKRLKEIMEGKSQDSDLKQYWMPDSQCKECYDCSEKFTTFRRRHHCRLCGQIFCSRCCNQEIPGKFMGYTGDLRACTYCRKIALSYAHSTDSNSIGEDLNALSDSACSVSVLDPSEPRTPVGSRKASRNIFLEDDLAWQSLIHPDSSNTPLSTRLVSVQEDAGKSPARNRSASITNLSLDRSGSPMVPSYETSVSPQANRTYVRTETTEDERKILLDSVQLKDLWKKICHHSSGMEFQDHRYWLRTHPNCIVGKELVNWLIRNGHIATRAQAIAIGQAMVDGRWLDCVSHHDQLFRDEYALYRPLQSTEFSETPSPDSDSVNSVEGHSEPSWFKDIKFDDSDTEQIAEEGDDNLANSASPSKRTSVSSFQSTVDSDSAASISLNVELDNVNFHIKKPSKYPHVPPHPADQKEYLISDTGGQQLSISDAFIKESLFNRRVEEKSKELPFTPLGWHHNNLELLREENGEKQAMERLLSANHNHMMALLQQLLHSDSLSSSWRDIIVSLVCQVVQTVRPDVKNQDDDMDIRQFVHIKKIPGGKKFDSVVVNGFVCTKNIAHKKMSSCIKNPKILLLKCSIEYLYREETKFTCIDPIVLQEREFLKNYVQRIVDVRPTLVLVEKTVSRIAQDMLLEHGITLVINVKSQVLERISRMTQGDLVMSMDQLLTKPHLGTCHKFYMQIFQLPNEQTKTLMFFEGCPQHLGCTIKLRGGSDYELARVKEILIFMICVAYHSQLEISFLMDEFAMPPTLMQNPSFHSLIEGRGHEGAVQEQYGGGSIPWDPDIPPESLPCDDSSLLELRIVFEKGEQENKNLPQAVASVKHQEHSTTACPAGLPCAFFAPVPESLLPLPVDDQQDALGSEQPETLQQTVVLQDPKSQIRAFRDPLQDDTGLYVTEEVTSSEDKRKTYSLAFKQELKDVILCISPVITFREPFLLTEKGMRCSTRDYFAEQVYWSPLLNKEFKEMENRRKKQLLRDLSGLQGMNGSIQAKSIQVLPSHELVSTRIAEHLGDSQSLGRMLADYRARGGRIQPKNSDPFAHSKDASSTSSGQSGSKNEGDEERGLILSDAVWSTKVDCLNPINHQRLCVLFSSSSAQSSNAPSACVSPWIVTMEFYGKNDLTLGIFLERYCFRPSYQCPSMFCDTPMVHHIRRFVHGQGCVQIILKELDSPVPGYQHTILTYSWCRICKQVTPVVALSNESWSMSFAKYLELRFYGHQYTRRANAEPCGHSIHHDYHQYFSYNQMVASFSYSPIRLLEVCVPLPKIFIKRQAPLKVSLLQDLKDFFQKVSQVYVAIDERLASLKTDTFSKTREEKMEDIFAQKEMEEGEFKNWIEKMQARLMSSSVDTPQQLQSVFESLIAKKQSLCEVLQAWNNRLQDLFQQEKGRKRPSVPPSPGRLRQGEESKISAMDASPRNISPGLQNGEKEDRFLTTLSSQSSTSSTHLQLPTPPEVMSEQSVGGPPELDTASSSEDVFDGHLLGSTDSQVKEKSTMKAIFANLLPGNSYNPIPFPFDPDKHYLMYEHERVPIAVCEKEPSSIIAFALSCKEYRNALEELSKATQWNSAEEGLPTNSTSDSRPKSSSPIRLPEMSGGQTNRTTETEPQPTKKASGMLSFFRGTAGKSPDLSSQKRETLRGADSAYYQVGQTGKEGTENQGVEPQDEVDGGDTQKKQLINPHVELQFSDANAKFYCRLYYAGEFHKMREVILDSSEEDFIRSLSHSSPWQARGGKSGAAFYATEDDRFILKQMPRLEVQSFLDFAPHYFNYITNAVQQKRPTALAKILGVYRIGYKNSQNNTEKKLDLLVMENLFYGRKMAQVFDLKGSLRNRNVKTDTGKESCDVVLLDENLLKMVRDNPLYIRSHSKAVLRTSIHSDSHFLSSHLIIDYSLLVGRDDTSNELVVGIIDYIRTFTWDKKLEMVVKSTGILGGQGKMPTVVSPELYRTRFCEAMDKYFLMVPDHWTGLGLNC

[40] = molecular target: 5-hydroxytryptamine receptor 3A (Homo sapiens) (UniProt P46098); details: Compound concentration 10.0 uM
[41] = molecular target: Myosin-IIIb (Homo sapiens) (UniProt Q8WXR4); assay: MYO3B DiscoveRx kinase panel; details: Compound concentration 1.0 uM
[42] = molecular target: 5-hydroxytryptamine receptor 1D (Homo sapiens, UniProt P28221); details: Compound concentration 10.0 uM
[43] = molecular target: Substance-P receptor (Homo sapiens) (UniProt P25103); assay: Inhibition of Tachykinin NK1 at 10 µM in the Eurofins-Panlabs radioligand binding assay (Eurofins_assay_255520); design: ligand concentration 0.8 nM; details: Compound concentration 10.0 uM

COc1cnccc1Nc1nc(-c2nn(Cc3c(F)cc(OCCO)cc3F)c3ccccc23)ncc1OC was tested, and the residual activity [1] was 92%, the inhibition [2] was 0% and the inhibition [3] was 1.38%. For the same molecule, the residual activity [4] was 100%, the residual activity [5] was 87% and the residual activity [6] was 93%. The residual activity [7] was 98%, the EC50 [8] was 6.1 nM (active) and the inhibition [9] was 2%. For the same molecule, the residual activity [10] was 100%, the residual activity [11] was 84% and the residual activity [12] was 58%. The residual activity [13] was 97%, the residual activity [14] was 100% and the inhibition [15] was 1.96%. For the same molecule, the residual activity [16] was 88%, the residual activity [17] was 100% and the residual activity [18] was 92%. It also gave a residual activity [19] of 100%, a residual activity [20] of 100% and an inhibition [21] of 39.3%. For the same molecule, the residual activity [22] was 82%, the residual activity [23] was 100% and the inhibition [24] was 4.34%. For the same molecule, the residual activity [25] was 92%, the residual activity [26] was 100% and the residual activity [27] was 100%. The residual activity [28] was 90%, the residual activity [29] was 92% and the residual activity [30] was 100%. For the same molecule, the residual activity [31] was 100%, the inhibition [32] was 4% and the residual activity [33] was 100%. The IC50 [34] was 6.5 nM (active), the Kd [35] was > 30000 nM and the residual activity ([35]; Compound concentration 1.0 uM) was 26%. For the same molecule, the residual activity [36] was 100%, the inhibition [37] was 13% and the residual activity [38] was 98%. For the same molecule, the residual activity [39] was 88%, the inhibition [40] was -8.58% and the residual activity [41] was 91%. It also gave an inhibition [42] of 9.3% and an inhibition [43] of 19%.
